Here are results for 2 compounds from patent US6855728B2, “Small-molecule modulators of hepatocyte growth factor / scatter factor activities” (North Shore-Long Island Jewish Health System, priority 2001, dated 2005).

As usually defined, the inhibition is how much of the control response was suppressed.

Experiment [1] concerns HGF/SF induced proliferation of HUVEC. As to the kind of experiment: Endothelial cell (HUVEC) proliferation assay in the presence of exogenously-added HGF/SF. The format is cell-based, human. The method in brief:
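Serum-starved HUVECs were treated 24 h at 37°C with compounds at final 1 to 12 microgram/ml in RPMI-1% BSA. Proliferation was read as ³H-thymidine incorporation over 4 to 5 h, counted after NaOH lysis.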

Experiment [2] has as its system VEGF-mediated increase in endothelial cell proliferation. The experiment in a line: Endothelial cell proliferation assay in the presence of VEGF. Format: cell-based. Particulars: 1.5 micromolar. As for the experimental part: (§1) Cell proliferation assays Endothelial cells (HUVECs) were seeded in 48 well plates at a density of 10,000 to 20,000 cells per well in the normal growth medium (EGM-2-Clonetics) containing 2% fetal bovine serum, FGF, VEGF, IGF, ascorbic acid, EGF, GA, heparin and hydrocortisone. The cells were grown normally in the growth medium for 24 hr at 37 degrees C. and 5% CO2. The cells were then rinsed with RPMI-1% BSA and starved for 1-2 hrs. The stock solutions of all the compounds were made at a concentration of 10 mg/ml in DMSO and diluted in RPMI-1% BSA at a final concentrations of 1 to 12 microgram/ml. The cells were then washed and treated with the compounds and incubated for another 24 hr at 37 degrees C. Then ^3H thymidine (0.5 microgram/ml in RPMI-BSA) was added to the cells and incubated at 37 degrees C. for 4 to 5 hours. The unincorporated thymidine was removed by washing the cells four times with 1× PBS. Then the cells were lysed with 0.5M NaOH for 30 min and the radioactivity counted in the beta counter.
(§2) In endothelial cell proliferation assays as described above, the effect of the compound 1-(4-chloro-3-methylphenyl)-3-(2,6-dichlorophenyl)-prop-2-en-1-one was evaluated in the presence of HGF/SF, VEGF or FGF for its effects on antagonizing the growth factor-induced stimulation of endothelial cell proliferation.

The next experiment concerns DU145 cells. As to the kind of experiment: Clonogenic assay. Format: cell-based. Particulars: clonogenic assay over 7 days. As for the experimental part: The effect of (4-(2-chloro-6-fluorobenzyl)-3,5-dimethyl-1H-pyrazole-1-yl)(3-(2,6-dichlorophenyl)-5-methylisoxazol-4-yl)methanone (FIG. 7) and 1-(4-chloro-3-methylphenyl)-3-(2,6-dichlorophenyl)-prop-2-en-1-one were evaluated in a clonogenic assay over 7 days.

The test system of experiment [3] is growth of blood vessels from subcutaneous tissue into Matrigel. The experiment in a line: In vivo blood vessel ingrowth assay (Matrigel). The note with it: mice, Matrigel mixed with compound injected subcutaneously, 10 days. Here is the method:
Angiogenesis was assayed as growth of blood vessels from subcutaneous tissue into a solid gel of basement membrane containing the test compound. Matrigel in liquid form (0.5 ml) was mixed with a compound of the invention, or basic fibroblast growth factor as a control, and injected into the abdominal subcutaneous tissue of mice as previously described (Kibbey, M. C., Grant, D. S. Auerbach, R. and Kleinman, H. K. [1992] Role of the SIKVAV site of laminin in promotion of angiogenesis and tumor growth: an in vivo Matrigel model. J. Natl. Can. Inst. 84, 1633-38). After 10 days, mice were sacrificed and the Matrigel plugs were removed, fixed, sectioned, stained and examined for ingrowth of blood vessels.

For experiment [4], the system named is FGF-mediated increase in endothelial cell proliferation. As to the kind of experiment: Endothelial cell proliferation assay in the presence of FGF. Format: cell-based. Particulars: 1.5 micromolar. As for the experimental part:
as §1, §2

The test system of experiment [5] is Endothelial cells (HUVECs). As to the kind of experiment: Endothelial cell (HUVEC) proliferation assay, 3H thymidine incorporation, compound without added growth factor. Format: cell-based, human. The method in brief:
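HUVECs grown 24 h in EGM-2, starved 1-2 h in RPMI-1% BSA, then exposed 24 h at 37 degrees C to compounds at 1 to 12 microgram/ml without added growth factors. Proliferation read as 3H thymidine incorporation over 4 to 5 h; human iliac artery endothelial cells also used similarly.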

For experiment [6], the system named is human endometrial cancer cells. The experiment in a line: Effect on growth of tumor cells. Format: cell-based. Particulars: 40 micrograms/ml. As for the experimental part:
Effect on growth of tumor cells. The activity of the compounds herein to promote or inhibit the growth of tumor cells was evaluated using human endometrial cancer cells.

For `Cc1cc(C(=O)C=Cc2c(Cl)cccc2Cl)ccc1Cl` [1-(4-chloro-3-methylphenyl)-3-(2,6-dichlorophenyl)-prop-2-en-1-one], in experiment [1] (1.5 micromolar), the “effect on HGF/SF-mediated increase in endothelial cell proliferation” value is reported as “suppressed”. Moreover, the “Inhibition at 6-12 micrograms/ml With” value in experiment [1] (6-12 micrograms/ml, with HGF/SF, inhibition of endothelial cell proliferation) was 40-80% inhibition. For the same compound, the “effect on VEGF-mediated increase in endothelial cell proliferation” value in experiment [2] is “suppressed”. The DU145 cell growth entry with DU145 cells is “dose responsive inhibition”. Also, the “ingrowth of blood vessels into Matrigel plug” value in experiment [3] is given as “nearly complete inhibition of blood vessel ingrowth”. Also, the “effect on FGF-mediated increase in endothelial cell proliferation” value in experiment [4] is “suppressed”. Further, in experiment [5] (1 ug/ml, without HGF/SF), the “Activity at 1 ug/ml concentration Without HGF/SF (result in words)” value is given as “No effect at 1 ug/ml”.
As for `Cc1nn(C(=O)c2c(-c3c(Cl)cccc3Cl)noc2C)c(C)c1Cc1c(Cl)cccc1Cl` [[4-(2,6-dichlorobenzyl)-3,5-dimethyl-1H-pyrazol-1-yl][3-(2,6-dichlorophenyl)-5-methylisoxazol-4-yl]methanone], the inhibition at 40 µg/mL in experiment [6] was in the range of 40 to 50%. Further, the “blockage of HGF/SF induced proliferation of HUVEC” value in experiment [1] (12 micrograms/ml) is 40-60%. For the same compound, the “effect on HGF/SF-mediated stimulation of HUVEC proliferation (FIG. 5)” value in experiment [1] (combination of HGF/SF and the compound) is on record as “significant suppression”. Besides, the “effect on HUVEC proliferation, substance alone (FIG. 5)” value in experiment [5] is reported as “no effect”.
